According to patent US20230312587A1, “PTERIDINONE COMPOUNDS AND USES THEREOF” (Vertex Pharmaceutical Incorporated, priority 2018, published 2023):
Where two headings read alike, the source gives them in different places.

Test system: β-catenin-TCF-mediated reporter transcription activity in Colo 205 cells
Experiment: Colo 205 reporter assay (TCF/LEF luciferase)
Assay type: cell-based
Method in brief: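 Luciferase signal from a TCF/LEF-driven reporter, stably integrated in Colo 205 colon cancer cells, was measured 5 h after compound addition.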

[1] = Homo sapiens, COLO 205, 5 h, Colo 205 TCF/LEF luciferase reporter, five hours after addition of compound, read-out: TCF reporter Colo205 IC50
[2] = Homo sapiens, COLO 205, 5 h, R-isomer at C2 (corresponding to C2 S-isomer), Colo 205 TCF/LEF luciferase reporter, 5 h, read-out: TCF reporter Colo205 IC50

Row | SMILES | IC50 [1] | also measured
1 | Cc1nc(N[C@H]2C[C@H](Sc3ccc(F)cc3)C2)nc2c1NC(=O)[C@H](C)N2C [Compound 303, (7S)-2-((trans-3-((4-fluorophenyl)thio)cyclobutyl)amino)-4,7,8-trimethyl-7,8-dihydropteridin-6(5H)-one] | 300 to 1000 nM | –
2 | Cc1nc(NCc2cnn(Cc3ccc(C(F)(F)F)nc3)c2)nc2c1NC(=O)[C@H](C(C)(C)O)N2C [Compound 726, (S)-7-(2-hydroxypropan-2-yl)-4,8-dimethyl-2-(((1-((6-(trifluoromethyl)pyridin-3-yl)methyl)-1H-pyrazol-4-yl)methyl)amino)-7,8-dihydropteridin-6(5H)-one] | 1000 to 5000 nM | –
3 | Cc1nc(NC2CN(C(=O)c3ncccn3)C2)nc2c1NC(=O)[C@H](C(C)C)N2C [Compound 640, (S)-7-isopropyl-4,8-dimethyl-2-((1-(pyrimidine-2-carbonyl)azetidin-3-yl)amino)-7,8-dihydropteridin-6(5H)-one] | ≥ 5000 nM | –
4 | Cc1nc(N[C@H]2CC[C@H](Oc3cc(F)c(F)c(F)c3)C2)nc2c1N(C)C(=O)[C@H](C)N2C [Compound 273, (S)-4,5,7,8-tetramethyl-2-(((1S,3S)-3-(3,4,5-trifluorophenoxy)cyclopentyl)amino)-7,8-dihydropteridin-6(5H)-one] | < 300 nM | –
5 | CC[C@@H]1C(=O)N(C)c2cnc(NCc3cnn(Cc4cc(F)c(F)c(F)c4)c3)nc2N1C(C)C [Compound I-1465] | – | IC50 [2]: < 300 nM
6 | COc1ccc(Cn2cc(CNc3nc(C)c4c(n3)N(C)[C@@H](C)C(=O)N4)cn2)cn1 [Compound 197, (7S)-2-(((1-((6-methoxypyridin-3-yl)methyl)-1H-pyrazol-4-yl)methyl)amino)-4,7,8-trimethyl-7,8-dihydropteridin-6(5H)-one] | < 300 nM | –
7 | Cc1nc(NCc2cnn(Cc3ccnc(N(C)C)c3)c2)nc2c1NC(=O)[C@H](C)N2C [Compound 12, (7S)-2-(((1-((2-(dimethylamino)pyridin-4-yl)methyl)-1H-pyrazol-4-yl)methyl)amino)-4,7,8-trimethyl-7,8-dihydropteridin-6(5H)-one] | 300 to 1000 nM | –
8 | CC(=O)c1ccc(OC[C@H]2C[C@@H](Nc3nc(C)c4c(n3)N(C)[C@@H](C(C)C)C(=O)N4)C2)cn1 [Compound 696, (S)-2-((cis-3-(((6-acetylpyridin-3-yl)oxy)methyl)cyclobutyl)amino)-7-isopropyl-4,8-dimethyl-7,8-dihydropteridin-6(5H)-one] | 300 to 1000 nM | –
9 | COc1cc(F)ccc1Cn1cc(CNc2nc(C)c3c(n2)N(C)[C@@H](C)C(=O)N3C)cn1 [Compound 84, (7S)-2-(((1-(4-fluoro-2-methoxybenzyl)-1H-pyrazol-4-yl)methyl)amino)-4,5,7,8-tetramethyl-7,8-dihydropteridin-6(5H)-one] | < 300 nM | –
10 | CCN1C(=O)[C@H](CCO)N(CC)c2nc(NCc3cnn(Cc4cc(F)c(F)c(F)c4)c3)ncc21 [Compound 37, (7S)-5,8-diethyl-7-(2-hydroxyethyl)-2-(((1-(3,4,5-trifluorobenzyl)-1H-pyrazol-4-yl)methyl)amino)-7,8-dihydropteridin-6(5H)-one] | < 300 nM | –
11 | Cc1nc(N[C@H]2C[C@@H](COc3cnn(C)c3C(F)(F)F)C2)nc2c1NC(=O)[C@H](C(C)C)N2C [Compound 575, (S)-7-isopropyl-4,8-dimethyl-2-((cis-3-(((1-methyl-5-(trifluoromethyl)-1H-pyrazol-4-yl)oxy)methyl)cyclobutyl)amino)-7,8-dihydropteridin-6(5H)-one] | < 300 nM | –
12 | Cc1nc(N[C@H]2CCc3nn(Cc4ccc(C(F)(F)F)nc4)cc32)nc2c1NC(=O)[C@H](C(C)C)N2C [Compound 521, (S)-7-isopropyl-4,8-dimethyl-2-(((S)-2-((6-(trifluoromethyl)pyridin-3-yl)methyl)-2,4,5,6-tetrahydrocyclopenta[c]pyrazol-4-yl)amino)-7,8-dihydropteridin-6(5H)-one] | 1000 to 5000 nM | –
13 | COc1cc(Cn2cc(CNc3nc(C)c4c(n3)N(C)[C@@H](C)C(=O)N4)cn2)ccc1F [Compound 75, (7S)-2-(((1-(4-fluoro-3-methoxybenzyl)-1H-pyrazol-4-yl)methyl)amino)-4,7,8-trimethyl-7,8-dihydropteridin-6(5H)-one] | < 300 nM | –
14 | Cc1nc(NCc2cnn(Cc3ncc(F)cn3)c2)nc2c1NC(=O)[C@H](C)N2C [Compound 162, (7S)-2-(((1-((5-fluoropyrimidin-2-yl)methyl)-1H-pyrazol-4-yl)methyl)amino)-4,7,8-trimethyl-7,8-dihydropteridin-6(5H)-one] | ≥ 5000 nM | –
15 | Cc1nc(N[C@H]2C[C@@H](COc3cncc(Cl)c3)C2)nc2c1NC(=O)[C@H](C)N2C [Compound 366, (7S)-2-((cis-3-(((5-chloropyridin-3-yl)oxy)methyl)cyclobutyl)amino)-4,7,8-trimethyl-7,8-dihydropteridin-6(5H)-one] | < 300 nM | –
16 | Cc1nc(NCc2cnn(Cc3ccc(OC(F)F)nc3)c2)nc2c1NC(=O)[C@@H](C(C)C)N2C [Compound I-1642] | – | IC50 [2]: 1000 to 5000 nM

Row | SMILES | IC50 [1] | also measured
17 | O=C1Nc2cnc(NCc3cnn(CCc4ccc(F)cc4)c3)nc2N[C@H]1CCO [Compound 13, (7S)-2-(((1-(4-fluorophenethyl)-1H-pyrazol-4-yl)methyl)amino)-7-(2-hydroxyethyl)-7,8-dihydropteridin-6(5H)-one] | ≥ 5000 nM | –
18 | Cc1nc(NCc2cnn(Cc3ccc(F)c(F)c3)c2)nc2c1NC(=O)[C@H](C)N2C [Compound 140, (7S)-2-(((1-(3,4-difluorobenzyl)-1H-pyrazol-4-yl)methyl)amino)-4,7,8-trimethyl-7,8-dihydropteridin-6(5H)-one] | < 300 nM | –
19 | Cc1nc(N[C@H]2CCN(Cc3ccc(F)cc3)C2)nc2c1NC(=O)[C@H](C)N2C [Compound 374, (7S)-2-(((S)-1-(4-fluorobenzyl)pyrrolidin-3-yl)amino)-4,7,8-trimethyl-7,8-dihydropteridin-6(5H)-one] | ≥ 5000 nM | –
20 | Cc1nc(N[C@H]2C[C@H](Sc3ccc(C(F)(F)F)cc3)C2)nc2c1N(C)C(=O)[C@H](C)N2C [Compound 320, (7S)-4,5,7,8-tetramethyl-2-((trans-3-((4(trifluoromethyl)phenyl)thio)-cyclobutyl)-amino)-7,8-dihydropteridin-6(5H)-one] | 1000 to 5000 nM | –
21 | Cc1nc(NCc2cnn(Cc3ccc(F)c(F)c3F)c2)nc2c1N(C)C(=O)[C@H](C)N2C [Compound 17, (7S)-4,5,7,8-tetramethyl-2-(((1-(2,3,4-trifluorobenzyl)-1H-pyrazol-4-yl)methyl)amino)-7,8-dihydropteridin-6(5H)-one] | < 300 nM | –
22 | Cc1nc(N[C@@H]2CO[C@H](COc3cc(F)c(F)c(F)c3)C2)nc2c1NC(=O)[C@H](C)N2C [Compound 308, (7S)-4,7,8-trimethyl-2-(((3S,5S)-5-((3,4,5-trifluorophenoxy)methyl)tetrahydrofuran-3-yl)amino)-7,8-dihydropteridin-6(5H)-one] | 1000 to 5000 nM | –
23 | CC[C@@H]1C(=O)Nc2cnc(NCc3cnn(Cc4ccc(F)cc4)c3)nc2N1C [Compound I-1634] | – | IC50 [2]: ≥ 5000 nM
24 | Cc1nc(NCc2cnn(C[C@@H](C)c3ccc(F)cc3)c2)nc2c1NC(=O)[C@H](C)N2C [Compound 95, (7S)-2-(((1-((S)-2-(4-fluorophenyl)propyl)-1H-pyrazol-4-yl)methyl)amino)-4,7,8-trimethyl-7,8-dihydropteridin-6(5H)-one] | < 300 nM | –
25 | [2H]C([2H])([2H])N1c2nc(NCc3cnn(Cc4ccc(C(F)(F)F)nc4)c3)nc(C)c2NC(=O)[C@@H]1C [Compound 400, (7S)-4,7-dimethyl-8-(methyl-d3)-2-(((1-((6-(trifluoromethyl)pyridin-3-yl)methyl)-1H-pyrazol-4-yl)methyl)amino)-7,8-dihydropteridin-6(5H)-one] | – | IC50 (Homo sapiens, COLO 205, 5 h, Colo 205 cells with stably transfected TCF/LEF luciferase reporter, five hours after addition of compound, read-out: TCF reporter Colo205): < 300 nM
26 | Cc1nc(NCc2cnn(Cc3ccccc3C(F)(F)F)c2)nc2c1NC(=O)[C@H](C)N2C [Compound 68, (7S)-4,7,8-trimethyl-2-(((1-(2-(trifluoromethyl)benzyl)-1H-pyrazol-4-yl)methyl)amino)-7,8-dihydropteridin-6(5H)-one] | < 300 nM | –
27 | Cc1nc(N[C@H]2C[C@H](Oc3ccc(C(F)(F)F)cc3)C2)nc2c1NC(=O)[C@H](C)N2C [Compound 340, (7S)-4,7,8-trimethyl-2-((trans-3-(4-(trifluoromethyl)phenoxy)cyclobutyl)amino)-7,8-dihydropteridin-6(5H)-one] | < 300 nM | –
28 | CCN1C(=O)C(C)(C)N(CC)c2nc(NCc3cnn(Cc4ccc(F)cc4)c3)ncc21 [Compound 230, 5,8-diethyl-2-(((1-(4-fluorobenzyl)-1H-pyrazol-4-yl)methyl)amino)-7,7-dimethyl-7,8-dihydropteridin-6(5H)-one] | 300 to 1000 nM | –
29 | COc1ccc(O[C@H]2C[C@H](Nc3nc(C)c4c(n3)N(C)[C@@H](C)C(=O)N4)C2)cc1 [Compound 342, (7S)-2-((trans-3-(4-methoxyphenoxy)cyclobutyl)amino)-4,7,8-trimethyl-7,8-dihydropteridin-6(5H)-one] | 1000 to 5000 nM | –
30 | CC[C@H]1C(=O)Nc2c(C)nc(NCc3cnn(Cc4ccc(OC(F)F)nc4)c3)nc2N1C [Compound 417, (7S)-2-(((1-((6-(difluoromethoxy)pyridin-3-yl)methyl)-1H-pyrazol-4-yl)methyl)amino)-7-ethyl-4,8-dimethyl-7,8-dihydropteridin-6(511)-one] | – | IC50 (Colo 205 TCF/LEF luciferase reporter, five hours after addition of compound, read-out: TCF reporter Colo205 IC50): < 300 nM
31 | Cc1nc(NC2CN(C(=O)Cc3cc(F)c(F)c(F)c3)C2)nc2c1NC(=O)[C@H](C(C)C)N2C [Compound 544, (S)-7-isopropyl-4,8-dimethyl-2-((1-(2-(3,4,5-trifluorophenyl)acetyl)azetidin-3-yl)amino)-7,8-dihydropteridin-6(5H)-one] | < 300 nM | –
32 | Cc1nc(NCc2cnn(CCc3ccc(F)c(F)c3)c2)nc2c1NC(=O)[C@H](C)N2C [Compound 105, (7S)-2-(((1-(3,4-difluorophenethyl)-1H-pyrazol-4-yl)methyl)amino)-4,7,8-trimethyl-7,8-dihydropteridin-6(5H)-one] | < 300 nM | –
